# Source: patent publication US10933052B2, “Compositions and methods for the treatment of eye disorders” (Cellix Bio Private Limited, priority 2017, dated 2021)
# Assay: Ocular pharmacokinetic study of CLX-156 formulation, topical administration in each eye
# Type: in vivo, male New Zealand white rabbits
# Settings: rabbit, topical 50 μL in each eye
# Experimental: A pharmacokinetics study was conducted on male New Zealand white rabbits to evaluate the ocular pharmacokinetics of CLX-156 (Pilocarpine-(R)-Lipoate) formulation. Animals were topically administered with 50 μL of CLX-156 in each eye, and the aqueous humour and blood samples were collected followed by sacrifice of the animals for collection of lens, cornea and iris region at a pre-determined time.
# The aqueous humour and tissue concentration of Pilocarpine and (R)-Lipoic acid were measured at 0.5 h, 1 h, 2 h, 4 h and 8 h in 3 animals/time point/group (as provided in Table 2 and Table 3 hereinbelow). Further, (R)-Lipoic acid concentration was measured in the lens region, and Pilocarpine concentration was measured in iris region of each of the treated animals (as provided in Table 2 and Table 3). All the samples were analyzed using LCMS-MS by a fit for purpose method.
# [1] = analyte (R)-Lipoic acid, aqueous humour
# [2] = analyte (R)-Lipoic acid, lens region
# [3] = analyte Pilocarpine, aqueous humour
# [4] = analyte Pilocarpine, iris region
substance,measurement,setting,value
"5-(((3R,4S)-4-ethyl-5-oxotetrahydro furan-3-yl)methyl)-1-methyl-1H-imidazol-1-ium (R)-5-(1,2-dithiolan-3-yl)pentanoate [CLX-156]","AUClast, (R)-Lipoic acid in aqueous humour",[1],17271 ng·h/mL
same,"Cmax, concentration of (R)-Lipoic acid in aqueous humour",[1],21067 ng/mL
same,"Tmax, (R)-Lipoic acid in aqueous humour",[1],30 min
same,"AUClast, (R)-Lipoic acid in lens region",[2],0.364 µg·h/g
same,"Tmax, (R)-Lipoic acid in lens region",[2],30 min
same,"AUClast, Pilocarpine in aqueous humour",[3],6359 ng·h/mL
same,"Cmax, concentration of Pilocarpine in aqueous humour",[3],6480 ng/mL
same,"Tmax, Pilocarpine in aqueous humour",[3],30 min
same,time up to which pilocarpine was detectable in aqueous humour,[3],up to 4 h
same,"AUClast, Pilocarpine in iris region",[4],1.491 µg·h/g
same,"Tmax, Pilocarpine in iris region",[4],30 min
same,time up to which pilocarpine was detectable in iris region,[4],up to 2 h
